Results as given in patent publication US10676744B2, “Modulation of adipose tissue macrophage phenotype by use of MicroRNA-30” (University of South Carolina, priority 2017, dated 2020).

Key:
Type in all cases: cell-based, mice
[1] = system: Notch1 intracellular domain (N1ICD); experiment: In vitro LNA transfection assay in BMDM: Western blot of cleaved/activated Notch1; conditions: LNA-transfected BMDM, compared to Mock and Ctr LNA
Procedure: (§1) FIG. 3A schematically illustrates an in vitro experimental timeline during which differentiated bone marrow-derived microphages (BMDM) were incubated in conditioned medium from 3T3-L1 adipocytes (CM-3T3-L1A) prior to transfection with microRNA inhibitor locked nucleic acids (LNA) and subsequent culture. Cells and supernatants were harvested at 48 h.
FIG. 3C presents Western blot results of cleaved/activated Notch1 (N1ICD) during the in vitro experiments. Fold induction relative to Mock is represented below each lane.
(§2) Bone marrow derived macrophages (BMDM) were differentiated from bone marrow cells (BMC) by flushing the tibia and femur of 6-8 week old female C57Bl/6J mice with PBS. BMCs were filtered through a 70 μm nylon mesh, RBC-lysed, and washed, then cultured in complete DMEM/F12 supplemented with 10% FBS, 1% penicillin/streptomycin, 2 mM L-glutamine, and 1 U/mL M-CSF (BioLegend, 576406) for 7-10 days. 3T3-L1 adipocyte-conditioned media (CM-3T3-L1A) was generated by differentiating 3T3-L1 preadipocytes into adipocytes according to the Zen-Bio 3T3-L1 Adipocyte Care Manual (ZBM0009.03). Preadipocyte medium, differentiation medium, and adipocyte maintenance medium were also used (Zen-Bio, PM-1-L1, DM-2-L1, AM-1-L1). Conditioned medium was collected between days 7 and 14 post-differentiation, 0.22 μm filtered, aliquoted, and stored at −80° C. until use. For transfection assays, mature BMDM were plated in poly-D-lysine-coated 6-well plates at a density of 5×10^5 cells in 2 ml CM-3T3-L1A containing 10% FBS without antibiotics. BMDM were incubated 24 h (37° C., 5% CO2, 95% humidity) before transfection. Transfection complexes were prepared by diluting Lipofectamine3000 and LNA in Opti-MEM to final concentrations of 2% (v/v) and 0.32 μM respectively. Mixtures were incubated 15-20 m at RT to allow complexes to form. Meanwhile, conditioned BMDM were washed 3× in pre-warmed Dulbecco's PBS (DPBS), then media replaced with 2 mL Opti-MEM. 5004 transfection complexes were added drop-wise to each well. […]

[2] = system: miRs-30a-5p, -30c-5p, and -30e-5p; experiment: In vitro LNA transfection assay in conditioned BMDM: miR-30 expression; conditions: BMDM in CM-3T3-L1A, LNA-transfected; relative to Mock and control LNA (Ctr LNA)
Procedure: ATMs were lysed in Qiazol and total RNA was purified using Qiagen miRNeasy Microkit. RNA concentration and purity were measured using a NanoDrop 2000 spectrophotometer. 400 ng total RNA was reverse transcribed to cDNA using Qiagen miScript II RT kit with HiFlex buffer. To validate miRNA expression by qRT-PCR, miScript SYBR Green PCR kit and miScript miRNA Primer Assays were used (Qiagen).
as §2

DLL4 = experiment: In vitro LNA transfection assay in BMDM: DLL4 in culture supernatants by ELISA; conditions: LNA-transfected BMDM; compared to Mock and Ctr LNA; harvested at 48 h
Procedure: as §1
FIG. 3B presents the amounts of DLL4 detected in culture supernatants by ELISA during the in vitro experiments.
as §2, with “form.” for “form. Meanwhile, conditioned BMDM were washed 3× in pre-warmed Dulbecco's PBS (DPBS), then media replaced with 2 mL Opti-MEM. 5004 transfection complexes were added drop-wise to each well.”
Culture supernatants were aspirated and centrifuged 5000 RPM, 5 m, 4° C. to rid of debris then aliquoted and stored −80° C. before assaying. […] Assays were performed according to manufacturer protocols and plates were read at 450 nm. Concentrations were calculated using standard curves.

CD11c = experiment: In vitro LNA transfection assay in BMDM: CD11c surface expression by flow cytometry; conditions: DAPT (5 uM) added to culture media of transfected BMDM
Procedure: as §1
FIG. 3F presents flow cytometry histograms of CD11c expression in the transfected BMDM. For FIG. 3B-FIG. 3F, values are presented as mean±SEM and are from a single experiment representative of 2-3 independent experiments.
FIG. 3G presents the percentage increase in CD11c+ macrophages during the in vitro experiments.
Freshly isolated SVF cells or cultured BMDM were washed in FACS buffer then incubated on ice with FcR-Blocker for 10 m followed by appropriate fluorochrome-conjugated antibodies or isotype controls (BioLegend, anti-CD11b-AlexaFluor488 clone: M1/70, anti-F4/80-PE clone: BM8, anti-DLL4-APC clone: HMD4-1, anti-CD45-PECy7 clone: 30-F11, anti-CD11c-APC clone: N418) for 50 m. Stained cells were washed 3× in FACS buffer then analyzed on a Beckman Coulter FC500 or BD FACSCelesta flow cytometer. Plots were analyzed with Beckman Coulter CXP Software or FlowJo v10.
Bone marrow derived macrophages (BMDM) were differentiated from bone marrow cells (BMC) by flushing the tibia and femur of 6-8 week old female C57Bl/6J mice with PBS. […]

| Compound | activated Notch1 intracellular domain (N1ICD) expression [1] | expression of miRs-30a-5p, -30c-5p, and -30e-5p [2] | DLL4 expression (culture supernatants, ELISA) (DLL4) | induction of CD11c in miR-30 inhibitor-transfected cells (CD11c) |
| --- | --- | --- | --- | --- |
| Anti-30a: miRNA inhibitor locked nucleic acid (MirCURY LNA, Exiqon) targeting miR-30a-5p; SEQ ID NO: 2 TTCCAGTCGAGGATGTTTAC (LNA-modified miRCURY inhibitor, LNA positions and linkages not given here) | increased | decreased expression | increased |  |
| Anti-30c: miRNA inhibitor locked nucleic acid (MirCURY LNA, Exiqon) targeting miR-30c-5p; SEQ ID NO: 3 CTGAGAGTGTAGGATGTT (LNA-modified miRCURY inhibitor, LNA positions and linkages not given here) | increased | decreased expression | increased |  |
| Anti-30e: miRNA inhibitor locked nucleic acid (MirCURY LNA, Exiqon) targeting miR-30e-5p; SEQ ID NO: 4 TCCAGTCAAGGATGTTTAC (LNA-modified miRCURY inhibitor, LNA positions and linkages not given here) | increased | decreased expression | increased |  |
| C[C@H](NC(=O)Cc1cc(F)cc(F)c1)C(=O)N[C@H](C(=O)OC(C)(C)C)c1ccccc1 [DAPT] |  |  |  | reduced induction |
